Experimental data: BigSolDB 2.1

COc1cc(C2Oc3cc(C4Oc5cc(O)cc(O)c5C(=O)C4O)ccc3OC2CO)ccc1O (stereo not given)
Conditions	solubility (mole fraction)
in PEG-400, 298.15 K	0.24
in PEG-400, 303.15 K	0.26
in PEG-400, 313.15 K	0.29
in PEG-400, 323.15 K	0.34
in PEG-400, 333.15 K	0.38

solubility (mole fraction)
Conditions	298.15 K	303.15 K	313.15 K	323.15 K	333.15 K
in ethanol	0.0167	0.0174	0.0193	0.0208	0.0227
in isopropanol	0.00448	0.00477	0.00524	0.00593	0.00662
in water	1.46e-05	1.68e-05	2.09e-05	2.54e-05	3.06e-05
